Among the data in paper PMC6469685 (Cell, 2018) are Kd values, retold here.

Assay in all cases: NBD fluorescence titration
Format in all cases: binding

Assay [1] addresses T1, StARD1 (StAR; HMBP-3C-STAR.66–285) (Homo sapiens, UniProt P49675).
T1 sequence (P49675 66-285): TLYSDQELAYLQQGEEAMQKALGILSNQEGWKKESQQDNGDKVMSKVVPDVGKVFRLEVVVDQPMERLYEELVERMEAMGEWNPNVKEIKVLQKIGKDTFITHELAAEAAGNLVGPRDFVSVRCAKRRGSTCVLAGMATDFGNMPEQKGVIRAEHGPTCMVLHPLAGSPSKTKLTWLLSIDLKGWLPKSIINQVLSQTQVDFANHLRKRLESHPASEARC
The note with it: labelled compound.

The target in assay [2] is Aster-C206–528 (ASTER domain of Aster-C) (Mus musculus, UniProt Q8CI52).
The target in assay [3] is T2, Aster-A261–576 (ASTER domain of Aster-A) (Mus musculus, UniProt Q8VEF1).
T2 sequence (Q8VEF1 261-576): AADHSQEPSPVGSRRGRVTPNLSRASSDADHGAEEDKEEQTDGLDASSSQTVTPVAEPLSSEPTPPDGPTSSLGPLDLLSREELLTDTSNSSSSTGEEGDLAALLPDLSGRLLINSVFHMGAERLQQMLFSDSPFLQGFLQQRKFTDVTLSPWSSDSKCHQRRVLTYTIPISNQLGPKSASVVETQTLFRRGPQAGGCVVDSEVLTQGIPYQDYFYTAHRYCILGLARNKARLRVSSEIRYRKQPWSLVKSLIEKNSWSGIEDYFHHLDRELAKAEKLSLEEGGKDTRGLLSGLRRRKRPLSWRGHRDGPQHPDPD

Chain of Aster-C206–528 (ASTER domain of Aster-C) (Q8CI52 206-528): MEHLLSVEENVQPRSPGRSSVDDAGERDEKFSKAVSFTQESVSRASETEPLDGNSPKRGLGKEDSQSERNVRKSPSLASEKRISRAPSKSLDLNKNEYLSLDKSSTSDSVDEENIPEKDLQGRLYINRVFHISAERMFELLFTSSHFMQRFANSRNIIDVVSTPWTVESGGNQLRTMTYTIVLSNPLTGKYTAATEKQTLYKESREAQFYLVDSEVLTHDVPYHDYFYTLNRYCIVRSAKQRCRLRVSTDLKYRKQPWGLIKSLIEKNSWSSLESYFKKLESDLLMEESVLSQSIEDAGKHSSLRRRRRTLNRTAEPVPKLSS

A word on the Kd: it is the free concentration of one partner at which half of the binding sites on the other are occupied at equilibrium, for simple one-to-one binding. Read a high Kd as weaker binding. In the case of `C[C@H](CNc1ccc([N+](=O)[O-])c2nonc12)[C@H]1CC[C@H]2[C@@H]3CC=C4C[C@@H](O)CC[C@]4(C)[C@H]3CC[C@]12C` [22-NBD-cholesterol], the Kd entry was “Comparison of NBD-cholesterol binding to Aster-A, Aster-B and StarD1” in assay [1]; below 100 nM in assay [2]; below 100 nM in assay [3].
